Experimental data taken from patent publication US20160046573A1, “IDENTIFYING PATIENT RESPONSE TO S1P RECEPTOR MODULATOR ADMINISTRATION” (Novartis AG, priority 2013, published 2016).

Experiments:
Assay in all cases: Enzyme mapping: metabolite formation by recombinant P450 isoenzyme
Type in all cases: in vitro ADME
CYP1A1 = biological target: T1, CYP1A1 (Homo sapiens, UniProt P04798); settings: 30 pmol/mL, 30 min
T1 construct: purchased BD Biosciences 456211; host or cells: baculovirus infected insect cells (BTI-TN-5B1-4)
T1 sequence (P04798 1-512): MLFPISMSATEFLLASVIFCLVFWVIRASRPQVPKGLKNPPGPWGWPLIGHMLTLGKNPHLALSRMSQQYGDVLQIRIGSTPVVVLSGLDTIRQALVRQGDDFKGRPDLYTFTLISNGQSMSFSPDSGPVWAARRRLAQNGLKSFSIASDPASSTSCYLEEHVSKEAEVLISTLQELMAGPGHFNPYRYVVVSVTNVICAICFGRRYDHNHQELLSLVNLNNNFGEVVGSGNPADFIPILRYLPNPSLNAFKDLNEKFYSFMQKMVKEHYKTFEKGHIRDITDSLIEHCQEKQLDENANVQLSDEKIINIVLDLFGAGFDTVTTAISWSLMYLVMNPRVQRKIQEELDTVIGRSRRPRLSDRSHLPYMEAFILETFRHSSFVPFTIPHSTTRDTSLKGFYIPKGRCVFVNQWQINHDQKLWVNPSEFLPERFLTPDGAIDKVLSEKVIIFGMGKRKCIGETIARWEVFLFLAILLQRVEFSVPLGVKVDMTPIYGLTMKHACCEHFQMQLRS
Protocol: (§1) Microsomes prepared from baculovirus infected insect cells (BTI-TN-5B1-4) expressing the following human P450 enzymes and the insect cell membrane preparations (negative control) were obtained from BD Biosciences (Woburn, Mass., USA).
(§2) The final concentrations are given in parentheses.
(§3) After 30 min at −80° C. […] The supernatant was withdrawn. […] Sample solutions were analyzed by HPLC combined with radiodetection. (for HLPC method, see Section 1.6)
(§4) Mean specific CYP enzyme concentrations in human liver microsomes were obtained from literature values (Rowland Yeo K, Rostami-Hodjegan A and Trucker GT (2004)] Abundance of cytochromes P450 in human liver: a meta-analysis. Br. J. Clinical Pharmacology; 57:687-688). For some recombinant human CYPs, the enzyme kinetic parameters were estimated by calculation assuming Michaelis-Menten type behavior for the two concentrations used, solving a linear equation system for 2 linear equations with 2 variables: […]
(§5) Microsomes prepared from baculovirus infected insect cells (BTI-TN-5B1-4) expressing one single human cytochrome P450 isoenzyme were used to assess the involvement of specific enzymes in the biotransformation of [14C]BAF312. Incubation experiments with a panel of 21 recombinant human CYPs (CYP1A1, 1A2, 1B1, 2A6, 2B6, 2C8, 2C9*1, 2C18, 2C19, 2D6*1, 2E1, 2J2, 3A4, 3A5, 3A7, 4A11, 4F2, 4F3A, 4F3B, 4F12 and CYP19) were conducted under similar conditions for each isoenzyme with 10 and 40 μM BAF312 incubation and 30 pmol CYP/mL for 30 min. […] Lower metabolism activities were also observed in incubation with CYP3A4, while some trace metabolism was detected with other CYP isoenzymes (2B6, 2C8, 2C19, 2J2, 3A5, 1A1).

CYP2B6 = biological target: T2, CYP2B6 (Homo sapiens, UniProt P20813); settings: for Metabolism Rate: 30 pmol/mL, 30 min
T2 construct: purchased BD Biosciences 456210; host or cells: baculovirus infected insect cells (BTI-TN-5B1-4)
T2 sequence (P20813 1-491): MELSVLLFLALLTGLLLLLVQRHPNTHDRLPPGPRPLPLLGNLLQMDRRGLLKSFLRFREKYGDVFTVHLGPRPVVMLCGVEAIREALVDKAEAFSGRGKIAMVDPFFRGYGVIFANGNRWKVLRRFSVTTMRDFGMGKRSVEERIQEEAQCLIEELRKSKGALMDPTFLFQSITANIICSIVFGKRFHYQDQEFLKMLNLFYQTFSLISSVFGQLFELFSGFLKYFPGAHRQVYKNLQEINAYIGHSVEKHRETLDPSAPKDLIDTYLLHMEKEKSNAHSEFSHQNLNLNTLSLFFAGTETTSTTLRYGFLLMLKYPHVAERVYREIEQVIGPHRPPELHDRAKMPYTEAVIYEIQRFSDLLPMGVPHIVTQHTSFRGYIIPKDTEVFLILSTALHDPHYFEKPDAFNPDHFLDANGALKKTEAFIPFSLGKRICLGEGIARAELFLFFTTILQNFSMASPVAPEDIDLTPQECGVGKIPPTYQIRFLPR
Protocol: as §1, §2, §3, §4, §5

CYP2J2 = biological target: T3, CYP2J2 (Homo sapiens, UniProt P51589); settings: 30 pmol/mL, 30 min
T3 construct: purchased BD Biosciences 456264; host or cells: baculovirus infected insect cells (BTI-TN-5B1-4)
T3 sequence (P51589 1-502): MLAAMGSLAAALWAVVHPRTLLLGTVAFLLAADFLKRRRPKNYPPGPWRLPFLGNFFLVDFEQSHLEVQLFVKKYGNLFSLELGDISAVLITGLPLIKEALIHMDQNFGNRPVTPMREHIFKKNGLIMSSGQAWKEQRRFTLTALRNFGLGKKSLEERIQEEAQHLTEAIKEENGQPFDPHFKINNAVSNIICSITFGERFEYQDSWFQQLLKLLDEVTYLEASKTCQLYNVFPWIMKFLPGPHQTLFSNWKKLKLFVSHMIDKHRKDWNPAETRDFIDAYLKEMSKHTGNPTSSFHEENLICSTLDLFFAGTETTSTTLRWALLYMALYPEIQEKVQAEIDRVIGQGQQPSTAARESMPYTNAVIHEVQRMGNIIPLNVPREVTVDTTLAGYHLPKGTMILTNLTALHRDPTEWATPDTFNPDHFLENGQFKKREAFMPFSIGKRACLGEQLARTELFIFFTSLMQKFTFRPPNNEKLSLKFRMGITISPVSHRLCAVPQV
Protocol: as §1, §2, §3, §4, §5

Metabolism Rate (CYP1A1; 10 μM BAF312): 13.3 pmol/min/nmol CYP 450
Metabolism Rate (CYP1A1; 40 μM BAF312): 28.9 pmol/min/nmol CYP 450
Metabolism Rate (CYP2B6; 10 μM BAF312): 17.8 pmol/min/nmol CYP 450
Metabolism Rate (CYP2B6; 40 μM BAF312): 44.4 pmol/min/nmol CYP 450
Vmax (CYP2B6; CYP 2B6, estimated by solving the Michaelis-Menten equation for the 2 substrate concentrations): 88.9 pmol/(min · nmol CYP)
Contribution (% total Rel. CL) (CYP2B6; CYP 2B6, metabolic clearance in human liver microsomes): 0.4%
Rel. CL (CYP2B6; CYP 2B6, relative to abundance in human liver microsomes): 0.04 μl/(min · nmol total CYP)
Km at 30 min (CYP2B6; human, pH 7.4, CYP 2B6, estimated by solving the Michaelis-Menten equation for the 2 substrate concentrations): 40 µM
Metabolism Rate (CYP2J2; 10 μM BAF312): 2.8 pmol/min/nmol CYP 450
Metabolism Rate (CYP2J2; 40 μM BAF312): 8.9 pmol/min/nmol CYP 450
Compound: CCc1cc(/C(C)=N/OCc2ccc(C3CCCCC3)c(C(F)(F)F)c2)ccc1CN1CC(C(=O)O)C1 [BAF312, 1-{4-[1-(4-cyclohexyl-3-trifluoromethyl-benzyloxyimino)-ethyl]-2-ethyl-benzyl}-azetidine-3-carboxylic acid]
